PubChem BioAssay AID2060353 (Molecular Pharmacology Branch, DTP, NCI, 2025)
Several values for one entry are separate records, joined by “and”; a condition that tells them apart may be missing. Equal values may be shown once.

Tested on: 521955-158-R2-J5-PDC spheroids with stroma, growth inhibition
Experiment: Anticancer human tumor 521955-158-R2-J5-PDC patient-derived pancreatic carcinoma cell line growth inhibition [TAK]
Details: for viability, T/C: stronger effect = lower value; active = viability on the fitted dose curve at most 10% of control; inactive = the rest
From the text: Combinatorial screen of targeted agents with TAK-243 and ipatasertib in multi-cell type tumor spheroids
A high-throughput screen of multi-cell type tumor spheroids was designed to identify active combinations of targeted small molecules and TAK-243 or ipatasertib. Complex spheroids include a stromal component modeled by human endothelial cells (HUVEC) and fibroblasts modeled by human mesenchymal stem cells (MSCs). The concentration ranges selected for each drug and investigational agent were based upon clinically achievable concentrations if the clinical Cmax of the agent was known.
Compounds. The drugs and investigational agents: TAK-243 (785004), ipatasertib (767898), everolimus (733504), selumetinib (741078), bortezomib (756655), trametinib (758246), ixazomib (758254), vemurafenib (761431), dabrafenib (764134), sapanisertib (764658), alpelisib (765974), and copanlisib (816437), were obtained from the National Cancer Institute (NCI) Developmental Therapeutics Program Chemical Repository. The FDA-approved anticancer drug set is available from the NCI Developmental Therapeutics Program. […] The stock solutions were prepared in dimethyl sulfoxide (DMSO, Sigma-Aldrich, St. Louis, MO, cat. D2650) at 800-fold the tested concentration and stored at -70 degrees C prior to their use. All drugs and investigational agents were tested over a range starting from a high concentration at or near the clinical Cmax and decreasing in half-log increments. If the clinical Cmax for an agent had not been determined, the highest concentration tested was 10 microM.
NCI60 Cell Culture. NCI60 cell lines were obtained from the NCI Developmental Therapeutics Program Tumor Repository. For each lot of cells, the Repository performed Applied Biosystems AmpFLSTR Identifiler testing with PCR amplification to confirm consistency with the published Identifier STR profile for each cell line. Cells were kept in continuous culture for no more than 20 passages. The optimal seeding densities for each of the cell lines at each time point assessed were determined prior to performing the concentration response studies. Briefly, the NCI60 human tumor lines were grown as monolayers in RPMI 1640 medium supplemented with 10% FBS and 2 mmol/L L-glutamine.
An additional 2 lines were from the NCI60 cell line panel including melanomas, MALME-3M and SK-MEL-2. Pooled donor human umbilical vein endothelial cells (HUVEC, Lonza, cat. CC-2519) and human mesenchymal stem cells (hMSC, Lonza, cat. PT-2501) were purchased from Lonza (Walkersville, MD).
PDMR cell lines were grown in complete medium (DC medium): Dulbecco's modified Eagle's medium (DMEM)/F12 supplemented with 5% fetal bovine serum (FBS), 2 mM L-glutamine, 100 U/mL penicillin and 100 µg/ml streptomycin, 0.4 µg/ml hydrocortisone, 10 ng/ml epidermal growth factor (EGF) recombinant human protein, 24 µg/mL adenine, and 0.1 mg/mL primocin. During culture from frozen stock vials, PDMR cells were cultured in the same medium containing 10 µM Y-27632 (see Table 3). The PDCs were cultured in complete DMEM/F12 media without 10 microM Y-27632 dihydrochloride for at least two passages prior to the screen. The pooled donor HUVEC and hMSC were cultured in endothelial cell growth medium 2 (PromoCell, Heidelberg, Germany, cat. C-22011) and mesenchymal stem cell growth medium 2 (PromoCell, cat. C-28009), respectively. For all experiments, HUVEC and hMSC were used at passages </=5.
For the pre-screen, cell seeding densities were determined from a titration spanning the range from 5,000 to 313 cells per well. The mct-spheroids including 60% malignant cells, 25% HUVEC and 15% MSC dispensed as a mixture into U-bottom Ultra-Low Attachment 384-well plates (Corning, NY)
High-throughput Drug Combination Screening.
Prior to their inoculation into 384-well plates, malignant cells, HUVEC, and hMSC were removed from T flasks using TrypLE express (Thermo Fisher Scientific, cat. 12605036) and harvested by centrifugation for 5 min at 233 x g. […]
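Also: spheroids exposed to drugs for seven days before readout.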

CC(=O)Nc1cccc(-n2c(=O)n(C3CC3)c(=O)c3c(Nc4ccc(I)cc4F)n(C)c(=O)c(C)c32)c1
1.87 nM and 1.69 nM: IC50 (curve of compound)
inactive: viability, T/C (compound 94.9 pM) 104% and 87% | viability, T/C (compound 0.0003 µM) 79.1% and 65.4% | viability, T/C (compound 0.000949 µM) 52% and 51.3% | viability, T/C (compound 0.003 µM) 48.2% and 48.1% | viability, T/C (compound 0.00949 µM) 38.6% and 39.5% | viability, T/C (compound 0.03 µM) 27.5% and 24.4%

CC(C)(C)c1nc(-c2cccc(NS(=O)(=O)c3c(F)cccc3F)c2F)c(-c2ccnc(N)n2)s1
inactive: viability, T/C (compound 0.0316 µM) 102% and 112% | viability, T/C (compound 0.1 µM) 112% and 117% | viability, T/C (compound 0.316 µM) 140% and 170% | viability, T/C (compound 1 µM) 160% and 186% | viability, T/C (compound 3.16 µM) 114% and 125% | viability, T/C (compound 10 µM) 88.9% and 92.2%
> 10000 nM: IC50 (curve of compound)

CC(C)CC(NC(=O)C(Cc1ccccc1)NC(=O)c1cnccn1)B(O)O (stereo not given)
5.96 nM and 6.03 nM: IC50 (curve of compound)
12.7% and 7.91%: viability, T/C (compound 0.01 µM)
inactive: viability, T/C (compound 31.6 pM) 94.9% and 116% | viability, T/C (compound 0.0001 µM) 90.7% and 91.3% | viability, T/C (compound 0.000316 µM) 91.3% and 92.2% | viability, T/C (compound 0.001 µM) 95.1% and 117% | viability, T/C (compound 0.00316 µM) 105% and 99.9%

CC(C)CC(NC(=O)CNC(=O)c1cc(Cl)ccc1Cl)B1OC(=O)CC(CC(=O)O)(C(=O)O)O1 (stereo not given)
inactive: viability, T/C (compound 0.000316 µM) 102% and 105% | viability, T/C (compound 0.001 µM) 111% and 93.8% | viability, T/C (compound 0.00316 µM) 96.3% and 92% | viability, T/C (compound 0.01 µM) 93.5% and 92.7% | viability, T/C (compound 0.0316 µM) 80.1% and 72.8%
50.8 nM and 47 nM: IC50 (curve of compound)
10% and 7.07%: viability, T/C (compound 0.1 µM)

CC(C)NCC(C(=O)N1CCN(c2ncnc3c2C(C)CC3O)CC1)c1ccc(Cl)cc1 (stereo not given)
inactive: viability, T/C (compound 0.3 µM) 101% [middle of 10 runs] | viability, T/C (compound 0.949 µM) 81.5% [middle of 10 runs] | viability, T/C (compound 3 µM) 82.7% [middle of 10 runs] | viability, T/C (compound 30 µM) 56.5% [middle of 10 runs]
> 30000 nM: IC50 (compound alone, run of 02/20/2020)

CC(C)n1nc(-c2ccc3oc(N)nc3c2)c2c(N)ncnc21
47.2 nM and 65.2 nM: IC50 (curve of compound)
inactive: viability, T/C (compound 0.000316 µM) 107% and 99.8% | viability, T/C (compound 0.001 µM) 89.1% and 102% | viability, T/C (compound 0.00316 µM) 80.7% and 95.7% | viability, T/C (compound 0.01 µM) 79.8% and 95.6% | viability, T/C (compound 0.0316 µM) 51.6% and 63.9% | viability, T/C (compound 0.1 µM) 39% and 41.8%

CCCS(=O)(=O)Nc1ccc(F)c(C(=O)c2c[nH]c3ncc(-c4ccc(Cl)cc4)cc23)c1F
> 100000 nM: IC50 (curve of compound)
inactive: viability, T/C (compound 0.316 µM) 77.5% and 89.5% | viability, T/C (compound 1 µM) 89% and 87.9% | viability, T/C (compound 3.16 µM) 132% and 116% | viability, T/C (compound 10 µM) 149% and 164% | viability, T/C (compound 31.6 µM) 165% and 24.2% | viability, T/C (compound 100 µM) 187% and 232%

COC1CC2CCC(C)C(O)(O2)C(=O)C(=O)N2CCCCC2C(=O)OC(C(C)CC2CCC(OCCO)C(OC)C2)CC(=O)C(C)C=C(C)C(O)C(OC)C(=O)C(C)CC(C)C=CC=CC=C1C (stereo not given)
inactive: viability, T/C (compound 0.000316 µM) 102% and 111% | viability, T/C (compound 0.001 µM) 105% and 97.8% | viability, T/C (compound 0.00316 µM) 90.8% and 91.6% | viability, T/C (compound 0.01 µM) 93.4% and 91.1% | viability, T/C (compound 0.0316 µM) 86.8% and 89.5% | viability, T/C (compound 0.1 µM) 73.8% and 66.2%
> 100 nM: IC50 (curve of compound)

COc1c(OCCCN2CCOCC2)ccc2c3n(c(=NC(=O)c4cnc(N)nc4)nc12)CCN3
inactive: viability, T/C (compound 0.00316 µM) 96.6% and 79.7% | viability, T/C (compound 0.01 µM) 71.7% and 68.7% | viability, T/C (compound 0.0316 µM) 48.8% and 53.6% | viability, T/C (compound 0.1 µM) 29.3% | viability, T/C (compound 0.316 µM) 9.38% and 8.89%
28.8 nM and 36.1 nM: IC50 (curve of compound)
active: viability, T/C (compound 1 µM) 8.06% and 7.65%

Cc1nc(NC(=O)N2CCCC2C(N)=O)sc1-c1ccnc(C(C)(C)C(F)(F)F)c1 (stereo not given)
inactive: viability, T/C (compound 0.0316 µM) 90.1% and 88.9% | viability, T/C (compound 0.1 µM) 88.6% and 71.4% | viability, T/C (compound 0.316 µM) 77.4% and 65.2% | viability, T/C (compound 1 µM) 62.1% and 51.6% | viability, T/C (compound 3.16 µM) 49.1% and 47.6% | viability, T/C (compound 10 µM) 35.7% and 40.8%
2680 nM and 1740 nM: IC50 (curve of compound)

Cn1cnc2c(F)c(Nc3ccc(Br)cc3Cl)c(C(=O)NOCCO)cc21
inactive: viability, T/C (compound 0.00949 µM) 77.5% and 65.7% | viability, T/C (compound 0.03 µM) 49.3% and 60.3% | viability, T/C (compound 0.0949 µM) 45.1% and 51.2% | viability, T/C (compound 0.3 µM) 42.5% and 42.8% | viability, T/C (compound 0.949 µM) 40.2% and 36% | viability, T/C (compound 3 µM) 34% and 28.5%
38.2 nM and 117 nM: IC50 (curve of compound)

COC1CC2CCC(C)C(O)(O2)C(=O)C(=O)N2CCCCC2C(=O)OC(C(C)CC2CCC(OCCO)C(OC)C2)CC(=O)C(C)C=C(C)C(O)C(OC)C(=O)C(C)CC(C)C=CC=CC=C1C (stereo not given) + CC(C)NCC(C(=O)N1CCN(c2ncnc3c2C(C)CC3O)CC1)c1ccc(Cl)cc1
< 0.316 nM: IC50 (curve of first compound, second compound 30 µM)
> 100 nM: IC50 (curve of first compound, second compound 0.3 µM) | IC50 (curve of first compound, second compound 0.949 µM) | IC50 (curve of first compound, second compound 3 µM) | IC50 (curve of first compound, second compound 9.49 µM)
inactive: viability, T/C (second compound 0.3 µM, first compound 0.000316 µM) 118% | viability, T/C (second compound 0.3 µM, first compound 0.001 µM) 95.9% | viability, T/C (second compound 0.3 µM, first compound 0.00316 µM) 77.3% | viability, T/C (second compound 0.3 µM, first compound 0.01 µM) 76% | viability, T/C (second compound 0.3 µM, first compound 0.0316 µM) 82.4% | viability, T/C (second compound 0.3 µM, first compound 0.1 µM) 65.5% | viability, T/C (second compound 0.949 µM, first compound 0.000316 µM) 79.4% | viability, T/C (second compound 0.949 µM, first compound 0.001 µM) 75.1% | viability, T/C (second compound 0.949 µM, first compound 0.00316 µM) 79.8% | viability, T/C (second compound 0.949 µM, first compound 0.01 µM) 79.7% | viability, T/C (second compound 0.949 µM, first compound 0.0316 µM) 89% | viability, T/C (second compound 0.949 µM, first compound 0.1 µM) 86.7% | viability, T/C (second compound 3 µM, first compound 0.000316 µM) 97.8% | viability, T/C (second compound 3 µM, first compound 0.001 µM) 98.3% | viability, T/C (second compound 3 µM, first compound 0.00316 µM) 93.9% | viability, T/C (second compound 3 µM, first compound 0.01 µM) 80.9% | viability, T/C (second compound 3 µM, first compound 0.0316 µM) 75.7% | viability, T/C (second compound 3 µM, first compound 0.1 µM) 76.2% | viability, T/C (second compound 9.49 µM, first compound 0.000316 µM) 78.3% | viability, T/C (second compound 9.49 µM, first compound 0.001 µM) 84.5% | viability, T/C (second compound 9.49 µM, first compound 0.00316 µM) 78.6% | viability, T/C (second compound 9.49 µM, first compound 0.01 µM) 68.3% | viability, T/C (second compound 9.49 µM, first compound 0.0316 µM) 60.9% | viability, T/C (second compound 9.49 µM, first compound 0.1 µM) 60.6% | viability, T/C (second compound 30 µM, first compound 0.000316 µM) 46.4% | viability, T/C (second compound 30 µM, first compound 0.001 µM) 42.2% | viability, T/C (second compound 30 µM, first compound 0.00316 µM) 33.8% | viability, T/C (second compound 30 µM, first compound 0.01 µM) 26.7% | viability, T/C (second compound 30 µM, first compound 0.0316 µM) 31.2% | viability, T/C (second compound 30 µM, first compound 0.1 µM) 32.4%
